Results on three compounds are retold here after patent US20190135834A1, “5-SUBSTITUTED AZABENZIMIDAZOLE DERIVATIVE HAVING ???? ACTIVATION ACTION” (Shionogi & Co., Ltd., priority 2016, published 2019).

Molecules are shown by their SMILES.

For this test, the target named is T1, Human AMPK α2ß2γ1 (Homo sapiens, UniProt O43741+P54646).
T1 construct: The full length cDNAs of human AMPK ß2 (NM_005399.3) and human AMPK α2 (NM_006252.3); The full length cDNAs of human AMPK ß2 (NM_005399.3); 6xHis (N); made in house; host or cells: Escherichia coli BL21 CodonPlus (DE3)-RIL
T1 sequence (P54646 whole entry): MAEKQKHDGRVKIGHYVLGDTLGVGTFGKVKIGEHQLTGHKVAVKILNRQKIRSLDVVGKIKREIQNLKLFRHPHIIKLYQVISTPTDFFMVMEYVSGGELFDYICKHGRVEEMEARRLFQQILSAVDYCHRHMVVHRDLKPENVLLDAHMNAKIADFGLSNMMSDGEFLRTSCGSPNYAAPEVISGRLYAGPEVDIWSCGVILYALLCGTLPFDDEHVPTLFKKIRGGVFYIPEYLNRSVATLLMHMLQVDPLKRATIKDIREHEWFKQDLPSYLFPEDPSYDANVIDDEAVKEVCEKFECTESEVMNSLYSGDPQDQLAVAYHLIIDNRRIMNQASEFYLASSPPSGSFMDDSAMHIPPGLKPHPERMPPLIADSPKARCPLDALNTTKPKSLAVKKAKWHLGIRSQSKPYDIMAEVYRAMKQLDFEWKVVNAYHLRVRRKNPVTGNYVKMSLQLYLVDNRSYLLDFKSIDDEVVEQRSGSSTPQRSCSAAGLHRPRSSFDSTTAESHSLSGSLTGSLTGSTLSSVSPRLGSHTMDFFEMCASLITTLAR
T1 sequence (O43741 whole entry): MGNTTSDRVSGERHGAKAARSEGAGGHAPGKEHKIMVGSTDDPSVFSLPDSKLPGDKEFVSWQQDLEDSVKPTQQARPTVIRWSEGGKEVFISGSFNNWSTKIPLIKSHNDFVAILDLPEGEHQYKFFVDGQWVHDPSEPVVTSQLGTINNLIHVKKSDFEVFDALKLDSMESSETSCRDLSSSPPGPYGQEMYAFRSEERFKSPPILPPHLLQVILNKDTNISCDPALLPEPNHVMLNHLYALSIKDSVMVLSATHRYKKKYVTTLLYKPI
T1 sequence (P54619 whole entry partner): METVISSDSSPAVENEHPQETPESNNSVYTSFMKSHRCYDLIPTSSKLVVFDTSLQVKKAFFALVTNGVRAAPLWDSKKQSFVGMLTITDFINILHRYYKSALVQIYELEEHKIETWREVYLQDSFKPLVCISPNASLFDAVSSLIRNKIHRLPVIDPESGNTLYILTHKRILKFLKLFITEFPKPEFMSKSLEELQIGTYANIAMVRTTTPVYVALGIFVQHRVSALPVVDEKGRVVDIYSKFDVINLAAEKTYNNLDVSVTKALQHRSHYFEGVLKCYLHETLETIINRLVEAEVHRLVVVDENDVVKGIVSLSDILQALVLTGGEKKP
As to the kind of experiment: Test Example 2: evaluation of an activator for AMP-activated protein kinase (AMPK), LabChip mobility shift assay with CaMKK2-phosphorylated enzyme. To be noted: for EC150 (compound concentration showing 150% relative to the control (100%)): FL-Peptide 7 substrate, 25° C., 2 hours; for Emax: relative to control (100%), read-out: Emax (maximum rate of increase in activity within the measurement range). Format: biochemical. An outline of the steps: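 E. coli-expressed His-tagged human AMPK α2β2γ1 preactivated with GST-CaMKK2 (0.2 mM ATP, 25° C, 1–1.5 h), preincubated 10 min with compound (1% DMSO), then reacted 2 h at 25° C with 3 μM FL-Peptide 7 and 0.4 mM ATP in substrate solution, pH 7.0. Mobility-shift conversion rate gives % activity increase over no-compound control.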

As to `O[C@@H]1CO[C@H]2[C@@H]1OC[C@H]2Oc1nc2nc(NC3CCc4cc(OCC(F)F)cc(F)c43)c(Cl)cc2[nH]1` (stereo partly drawn) [Compound I-2-75], the “EC150 (compound concentration showing 150% relative to the control (100%))” value is listed as 2.7 nM and the maximum response (Emax) stood at 581%.

For `CC(C)(O)C#Cc1cc(F)c2c(c1)CC[C@@H]2Nc1nc2nc(O[C@@H]3CO[C@H]4[C@@H]3OC[C@H]4O)[nH]c2cc1Cl` [Compound I-2-77], the “EC150 (compound concentration showing 150% relative to the control (100%))” value was 3.8 nM and the maximal effect (Emax) is 650%.

As for `N#CCn1cc(-c2cc(F)c3c(c2)CC[C@@H]3Nc2nc3nc(O[C@@H]4CO[C@H]5[C@@H]4OC[C@H]5O)[nH]c3cc2Cl)cn1` [Compound I-2-78], the “EC150 (compound concentration showing 150% relative to the control (100%))” value came to 2.5 nM and the Emax was 692%.
